Results from PubChem BioAssay AID1918998 (Molecular Pharmacology Branch, DTP, NCI, 2023).

Test system: 521955-158-R2-J5-PDC complex spheroid growth
Assay: Anticancer human tumor 521955-158-R2-J5-PDC patient-derived pancreatic carcinoma cell line growth inhibition [AhR]
Conditions: for IC50: curve of first compound; for viability, T/C: stronger effect = lower value; active means viability on the fitted dose curve at most 10% of control; inactive means the rest
Description: Multicellular complex tumor spheroid response to aryl hydrocarbon receptor antagonists in combination with a variety of drugs and investigational agents in selected tumor cell lines
The current study was undertaken to assess response to aryl hydrocarbon receptor antagonists in combination with standard-of-care drugs and investigational agents in solid tumor complex spheroid models. Complex spheroids include a stromal component modeled by human endothelial cells (HUVEC) and fibroblasts modeled by human mesenchymal stem cells (MSCs). The concentration ranges selected for each drug and investigational agent were based upon clinically achievable concentrations if the clinical Cmax of the agent was known.
Compounds. The drugs and investigational agents: BAY 2416964 (NSC825713), GNF351 (NSC835774), CH-223191 (NSC835775), CPI-455 (NSC825282), aza-TdCyd (NSC777586), decitabine (NSC127716), belinostat (NSC758774), entinostat (NSC756642), pevonedistat (NSC761192), tazemetostat (NSC777109), talazoparib (NSC765396), olaparib (NSC753686), selinexor (NSC780203), nedisertib (M3814, NSC802822), bortezomib (NSC756655), venetoclax (NSC766270), doxorubicin (NSC123127), elimusertib (BAY189344, NSC800525), ceralasertib (AZD6738, NSC777638), TAK-243 (NSC785004), alisertib (NSC759677), etoposide (NSC141540), topotecan (NSC609699), eribulin (NSC707389), gemcitabine (NSC613327), carboplatin (NSC241240), cisplatin (NSC119875), and SN-38 (NSC673596) were obtained from the National Cancer Institute (NCI) Developmental Therapeutics Program Chemical Repository (32). The FDA-approved anticancer drug set is available from the Developmental Therapeutics Program at https://dtp.cancer.gov/organization/dscb/obtaining/available plates.htm. […] The stock solutions were prepared in dimethyl sulfoxide (DMSO, Sigma-Aldrich, St. Louis, MO, cat. D2650), except for the platinum compounds which were prepared in saline (Quality Biological, Gaithersburg, MD, cat. 114-055-101), at 800-fold the tested concentration and stored at -70 degrees C prior to their use. All drugs and investigational agents were tested over a range starting from a high concentration at or near the clinical Cmax and decreasing in half-log increments. If the clinical Cmax for an agent had not been determined, the highest concentration tested was 10 microM (Table 1).
Cell Culture. All cells were maintained in an incubator at 37 degrees C and 5% CO2 with 95% humidity. The PDC lines were cultured according to standard operating procedures established by the NCI PDMR (https://pdmr.cancer.gov). Briefly, all PDCs were thawed and cultured in Matrigel-coated flasks prepared with a working solution of 1X Ham's F-12 nutrient mix, without supplementation (Invitrogen, Waltham, MA, cat. 11765054), 100 U/mL penicillin-streptomycin (Invitrogen, cat. 15140122), and 2.5% Matrigel (Corning Inc., Corning, NY, cat. 354248) for the first three passages. All PDCs were cultured in complete DMEM/F-12 media containing advanced DMEM/F-12 (Invitrogen, cat. 12634028), 4.9% defined fetal bovine serum, heat inactivated (HyClone Laboratories Inc., Logan, UT, cat. SH30070.03HI), 389 ng/mL hydrocortisone (Sigma-Aldrich, cat. H4001), 9.7 ng/mL human EGF recombinant protein (Invitrogen, cat. PHG0313), 23.4 microg/mL adenine (Sigma-Aldrich, cat. A2786), 97.3 U/mL penicillin-streptomycin (Invitrogen, cat. 15140122), 1.9 mM L-glutamine (Invitrogen, cat. 25030081), and 9.7 microM Y-27632 dihydrochloride (Tocris Bioscience, Bristol, United Kingdom, cat. 1254). The PDCs were cultured in complete DMEM/F12 media without 10 microM Y-27632 dihydrochloride for at least two passages prior to the screen. The established cell lines NCI-H1341 and […] were cultured in DMEM/F-12, HEPES (Invitrogen, cat. 11330032), 5% defined fetal bovine serum (HyClone Laboratories Inc., cat. SH30070.03), ITS premix universal culture supplement [insulin (5 microg/mL), transferrin (5 microg/mL), and selenious acid (5 ng/mL)] […]

[1] = second compound 0.1 µM, first compound 0.0316 µM
[2] = second compound 0.1 µM, first compound 0.1 µM
[3] = second compound 0.1 µM, first compound 0.316 µM
[4] = second compound 0.1 µM, first compound 1 µM
[5] = second compound 0.1 µM, first compound 3.16 µM
[6] = second compound 0.1 µM, first compound 10 µM
[7] = second compound 0.316 µM, first compound 0.0316 µM
[8] = second compound 0.316 µM, first compound 0.1 µM
[9] = second compound 0.316 µM, first compound 0.316 µM
[10] = second compound 0.316 µM, first compound 1 µM
[11] = second compound 0.316 µM, first compound 3.16 µM
[12] = second compound 0.316 µM, first compound 10 µM
[13] = second compound 1 µM, first compound 0.0316 µM
[14] = second compound 1 µM, first compound 0.1 µM
[15] = second compound 1 µM, first compound 0.316 µM
[16] = second compound 1 µM, first compound 1 µM
[17] = second compound 1 µM, first compound 3.16 µM
[18] = second compound 1 µM, first compound 10 µM
[19] = second compound 3.16 µM, first compound 0.0316 µM
[20] = second compound 3.16 µM, first compound 0.1 µM
[21] = second compound 3.16 µM, first compound 0.316 µM
[22] = second compound 3.16 µM, first compound 1 µM
[23] = second compound 3.16 µM, first compound 3.16 µM
[24] = second compound 3.16 µM, first compound 10 µM
[25] = second compound 10 µM, first compound 0.0316 µM
[26] = second compound 10 µM, first compound 0.1 µM
[27] = second compound 10 µM, first compound 0.316 µM
[28] = second compound 10 µM, first compound 1 µM
[29] = second compound 10 µM, first compound 3.16 µM
[30] = second compound 10 µM, first compound 10 µM
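Wherever viability, T/C is given: spheroids mix tumor cells with HUVEC endothelium and human MSC stroma; luminescence taken as viability surrogate after a week of drug exposure.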

CCc1c2c(nc3ccc(O)cc13)-c1cc3c(c(=O)n1C2)COC(=O)[C@]3(O)CC + CC(CO)NC(=O)c1cc(-c2ccc(Cl)cc2)nn(-c2cnn(C)c2)c1=O
inactive: viability, T/C (second compound 0.1 µM, first compound 0.000949 µM) 57.4% | viability, T/C (second compound 0.1 µM, first compound 0.003 µM) 47.5% | viability, T/C (second compound 0.1 µM, first compound 0.00949 µM) 15.7% | viability, T/C (second compound 0.316 µM, first compound 0.000949 µM) 49.1% | viability, T/C (second compound 0.316 µM, first compound 0.003 µM) 36.5% | viability, T/C (second compound 0.316 µM, first compound 0.00949 µM) 13.5% | viability, T/C (second compound 1 µM, first compound 0.000949 µM) 55.3% | viability, T/C (second compound 1 µM, first compound 0.003 µM) 30% | viability, T/C (second compound 1 µM, first compound 0.00949 µM) 16.4% | viability, T/C (second compound 3.16 µM, first compound 0.000949 µM) 35.5% | viability, T/C (second compound 3.16 µM, first compound 0.003 µM) 29.3% | viability, T/C (second compound 3.16 µM, first compound 0.00949 µM) 16.7% | viability, T/C (second compound 3.16 µM, first compound 0.03 µM) 12.7% | viability, T/C (second compound 3.16 µM, first compound 0.0949 µM) 9.72% | viability, T/C (second compound 10 µM, first compound 0.000949 µM) 27.3% | viability, T/C (second compound 10 µM, first compound 0.003 µM) 23.6% | viability, T/C (second compound 10 µM, first compound 0.00949 µM) 14.9% | viability, T/C (second compound 10 µM, first compound 0.03 µM) 8.31%
active: viability, T/C (second compound 0.1 µM, first compound 0.03 µM) 9.8% | viability, T/C (second compound 0.1 µM, first compound 0.0949 µM) 8.28% | viability, T/C (second compound 0.1 µM, first compound 0.3 µM) 5.09% | viability, T/C (second compound 0.316 µM, first compound 0.03 µM) 9.73% | viability, T/C (second compound 0.316 µM, first compound 0.0949 µM) 8.11% | viability, T/C (second compound 0.316 µM, first compound 0.3 µM) 5.79% | viability, T/C (second compound 1 µM, first compound 0.03 µM) 7.85% | viability, T/C (second compound 1 µM, first compound 0.0949 µM) 9.01% | viability, T/C (second compound 1 µM, first compound 0.3 µM) 4.72% | viability, T/C (second compound 3.16 µM, first compound 0.3 µM) 9.82% | viability, T/C (second compound 10 µM, first compound 0.0949 µM) 7.42% | viability, T/C (second compound 10 µM, first compound 0.3 µM) 6.21%
< 0.949 nM: IC50 (second compound 0.316 µM) | IC50 (second compound 3.16 µM) | IC50 (second compound 10 µM)
2.22 nM: IC50 (second compound 0.1 µM)
1.21 nM: IC50 (second compound 1 µM)

Nc1ccn(C2OC(CO)C(O)C2(F)F)c(=O)n1 (stereo not given) + CC(CO)NC(=O)c1cc(-c2ccc(Cl)cc2)nn(-c2cnn(C)c2)c1=O
518 nM: IC50 (second compound 0.1 µM)
504 nM: IC50 (second compound 1 µM)
549 nM: IC50 (second compound 0.316 µM)
inactive: viability, T/C [1] 59.8% | viability, T/C [2] 75.3% | viability, T/C [3] 72.4% | viability, T/C [4] 24.4% | viability, T/C [5] 13.2% | viability, T/C [6] 13.6% | viability, T/C [7] 56% | viability, T/C [8] 73.8% | viability, T/C [9] 86.4% | viability, T/C [10] 26.1% | viability, T/C [11] 11.4% | viability, T/C [12] 9.09% | viability, T/C [13] 90.5% | viability, T/C [14] 87.8% | viability, T/C [15] 68.7% | viability, T/C [16] 22.6% | viability, T/C [17] 14.2% | viability, T/C [18] 14.8% | viability, T/C [19] 78.1% | viability, T/C [20] 56.4% | viability, T/C [21] 45.5% | viability, T/C [22] 20.9% | viability, T/C [23] 16.4% | viability, T/C [24] 11.9% | viability, T/C [25] 50.2% | viability, T/C [26] 54.5% | viability, T/C [27] 36.3% | viability, T/C [28] 22.5% | viability, T/C [29] 15.5% | viability, T/C [30] 10.5%
178 nM: IC50 (second compound 3.16 µM)
101 nM: IC50 (second compound 10 µM)

O=C(c1cc(Cc2n[nH]c(=O)c3ccccc23)ccc1F)N1CCN(C(=O)C2CC2)CC1 + CC(CO)NC(=O)c1cc(-c2ccc(Cl)cc2)nn(-c2cnn(C)c2)c1=O
inactive: viability, T/C [1] 116% | viability, T/C [2] 107% | viability, T/C [3] 116% | viability, T/C [4] 85.6% | viability, T/C [5] 76.7% | viability, T/C [6] 75.3% | viability, T/C [7] 102% | viability, T/C [8] 119% | viability, T/C [9] 93.7% | viability, T/C [10] 101% | viability, T/C [11] 73.2% | viability, T/C [12] 71.3% | viability, T/C [13] 101% | viability, T/C [14] 104% | viability, T/C [15] 110% | viability, T/C [16] 88.7% | viability, T/C [17] 83.7% | viability, T/C [18] 72.6% | viability, T/C [19] 91.9% | viability, T/C [20] 128% | viability, T/C [21] 110% | viability, T/C [22] 97.7% | viability, T/C [23] 85.4% | viability, T/C [24] 70.5% | viability, T/C [25] 68.5% | viability, T/C [26] 82.6% | viability, T/C [27] 87.4% | viability, T/C [28] 79.9% | viability, T/C [29] 70.6% | viability, T/C [30] 50.5%
> 10000 nM: IC50 (second compound 0.1 µM) | IC50 (second compound 0.316 µM) | IC50 (second compound 1 µM) | IC50 (second compound 3.16 µM) | IC50 (second compound 10 µM)
